The conditions of data set [1]: Crystal; visual observation.
The nature of data set [2]: Molar enthalpy of transition or fusion. As to conditions: Crystal; DSC.

We go through 1 molecule from the NIST ThermoML archive (doi:10.1016/j.jct.2011.04.023).

Numbers after ± are expanded uncertainties.

Turning to `CCCCCC[n+]1cccc(C)c1.Cc1ccc(S(=O)(=O)[O-])cc1` [1-hexyl-3-methylpyridinium 4-methylbenzenesulfonate], the Normal melting temperature in data set [1] was 56.2 ± 0.4 °C. Also, in data set [2], the “Molar enthalpy of transition or fusion” value worked out at 2.41 ± 0.0813 kcal/mol.
